Patent EP3156398A1, “AGONISTS OF THE CHEMOKINE RECEPTOR CXCR3” (Friedrich-Alexander-Universität Erlangen-Nürnberg, priority 2015, dated 2017)
“Also recorded” adds a separate entry of the source.

Legend:
CXCR3 = biological target: T1, CXCR3 (Homo sapiens, UniProt P49682); experiment: [35S]GTPγS incorporation assay; format: biochemical; settings: for CXCR3 Efficacy (%) ± SEM: % of CXCL11 mediated effect; for CXCR3 Efficacy (%) ± SEM / CXCR3 pEC50 ± SEM: membrane preparations of HEK293T stably expressing CXCR3; for CXCR3 pEC50 ± SEM: mean of three experiments in triplicate; for CXCR3 mediated G protein activation (result in words): [35S]GTPγS incorporation
T1 construct: expressed in transfected cells; host or cells: HEK293 / HEK293T cells, stably transfected; membrane preparations
T1 sequence (P49682 1-368): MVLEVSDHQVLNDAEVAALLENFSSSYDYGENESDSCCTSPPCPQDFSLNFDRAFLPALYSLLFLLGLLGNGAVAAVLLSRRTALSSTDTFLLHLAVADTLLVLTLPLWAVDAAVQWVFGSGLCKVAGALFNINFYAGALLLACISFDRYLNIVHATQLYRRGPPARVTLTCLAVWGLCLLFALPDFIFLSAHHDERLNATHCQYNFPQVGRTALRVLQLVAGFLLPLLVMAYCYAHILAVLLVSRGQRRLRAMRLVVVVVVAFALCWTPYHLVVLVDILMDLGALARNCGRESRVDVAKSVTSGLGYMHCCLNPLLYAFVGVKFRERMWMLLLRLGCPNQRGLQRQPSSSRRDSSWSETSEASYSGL
In short: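 Membranes from HEK293 cells stably expressing human CXCR3 (30 µg/mL protein) preincubated 30 min at 37 °C with test compound, CXCL11 and 1 µM GDP in HEPES/MgCl2/NaCl/saponin buffer, pH 7.4. Then 0.10 nM [35S]GTPγS added for 30 min at 37 °C; filter-bound radioactivity counted, triplicates, 3–4 experiments.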

CXCR3-eGFP = biological target: T2, CXCR3-eGFP (Homo sapiens, UniProt P49682); experiment: Receptor internalization imaging (confocal laser scanning microscopy); format: cell-based; settings: CXCL11 10 nM; FAUC1036 10 µM and 1 µM; one hour; Figure 4A
T2 construct: expressed in transfected cells; host or cells: HEK293T cells, transient
T2 sequence (P49682 1-368): T1 sequence (P49682 1-368)
Procedure: Receptor internalization imaging: The day before transfection HEK293T cells were seeded in 6-well plates at a density of 200,000 cells/well. Transient transfection of the C-terminally eGFP-tagged CXCR3 cDNA was performed using TransIT293(MIRUS). Cells were transferred to Poly-L-Lysine coated glass coverslips 24 h after transfection. 2 d after transfection, cells were washed with phosphate buffered saline (PBS) and treated with the endogenous chemokine CXCL11 or compound FAUC1036 at 37°C in 5% CO2 for 60min. Cells were fixed with 4% paraformaldehyde (RotiHistofix, Carl Roth) for 10min. […]
The effect of FAUC1036 on receptor internalization was investigated by scanning laser confocal microscopy and ELISA-based assay. […] The quantification of receptor internalization upon the treatment with the endogenous agonists and with either β-arrestin 2 biased FAUC1036 or G-protein biased FAUC1104 was performed with ELISA based assay. The HEK293T cells transiently expressing FLAG-CXCR3 were stimulated with compounds and chemokines for one hour, washed, fixed and the amount of FLAG-CXCR3 present on the surface was detected by anti-FLAG antibody.

Row | SMILES | CXCR3 Efficacy (%) ± SEM (CXCR3; listed as 14/FAUC1104) | CXCR3 Efficacy (%) ± SEM (CXCR3; listed as FAUC1104) | CXCR3 pEC50 ± SEM (CXCR3; listed as 14/FAUC1104) | CXCR3 pEC50 ± SEM (CXCR3; listed as FAUC1104) | Emax (CXCR3; read-out: CXCR3 Efficacy (%) ± SEM) | CXCR3 Efficacy (%) ± SEM (CXCR3) | CXCR3 mediated G protein activation (result in words) (CXCR3; listed as 11/FAUC1036) | CXCR3 mediated G protein activation (result in words) (CXCR3; listed as FAUC1036) | CXCR3 pEC50 ± SEM (CXCR3) | CXCR3 internalization (confocal microscopy) (CXCR3-eGFP)
1 | COc1ccc(C(=O)CCC(=O)N2Cc3ccccc3C[C@H]2C(=O)NCCCC[C@H](NC(=O)OC(C)(C)C)C(=O)NCC(c2ccccc2)c2ccccc2)cc1 [Compound 14, Tert-butyl ((S)-1-((2,2-diphenylethyl)amino)-6-((S)-2-(4-(4-methoxyphenyl)-4-oxobutanoyl)-1,2,3,4-tetrahydroisoquinoline-3-carboxamido)-1-oxohexan-2-yl)carbomate] | 50±19% | 50% | 5.22±0.31 | 5.22 | 50% |  |  |  |  | 
2 | CC(C)(C)OC(=O)N[C@@H](CCCCNC(=O)[C@@H]1Cc2ccccc2CN1C(=O)CCC(=O)c1ccccc1)C(=O)NCC(c1ccccc1)c1ccccc1 [Compound 11, Tert-butyl ((S)-1-((2,2-diphenylethyl)amino)-1-oxo-6-((S)-2-(4-oxo-4-phenylbutanoyl)-1,2,3,4-tertahydroisoquinoline-3-carboxamido)hexan-2-yl)carbamate] |  |  |  |  |  | No effect | failed to induce CXCR3 mediated G protein activation | without any activation of G proteins; also recorded: has no effect on the G-protein signalling | No effect | induced the CXCR3 internalization; also recorded: led to the internalization of a significant portion of the receptors
